US12421210B2, “Fused bicyclic heterocycles as therapeutic agents” (NEW YORK UNIVERSITY, priority 2018, dated 2025)
Read-outs that look alike come from different tables or passages of the source.

Molecular target: human NAMPT enzyme (His-hNAMPT) (Homo sapiens (Human), UniProt P43490)
Test: NAMPT enzymatic inhibition assay (fluorescence, NADH product)
Assay type: biochemical
[1] = [BPS], read-out: NAMPT IC50 (μM) [BPS]
[2] = [HDB], read-out: NAMPT IC50 (μM) [HDB]

Chain of human NAMPT enzyme (His-hNAMPT) (P43490 whole entry): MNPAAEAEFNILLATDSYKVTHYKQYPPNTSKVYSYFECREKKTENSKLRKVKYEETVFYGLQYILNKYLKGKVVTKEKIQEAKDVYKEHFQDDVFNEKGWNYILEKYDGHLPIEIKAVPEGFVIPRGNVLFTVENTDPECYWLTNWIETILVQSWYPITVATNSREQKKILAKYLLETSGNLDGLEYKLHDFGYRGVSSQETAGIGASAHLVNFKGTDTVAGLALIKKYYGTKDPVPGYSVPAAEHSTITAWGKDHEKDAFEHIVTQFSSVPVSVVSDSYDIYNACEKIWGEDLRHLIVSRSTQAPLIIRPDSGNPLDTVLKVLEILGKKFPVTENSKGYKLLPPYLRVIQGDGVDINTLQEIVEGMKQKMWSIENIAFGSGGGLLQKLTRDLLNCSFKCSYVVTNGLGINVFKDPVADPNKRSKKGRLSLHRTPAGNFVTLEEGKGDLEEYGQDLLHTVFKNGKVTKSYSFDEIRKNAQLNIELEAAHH

Row | IC50 [1] [µM] | IC50 [2] [µM] | Structure (SMILES)
1 | 0.01 to 0.49 | < 0.01 | CC(C)(C)OC(=O)N1C[C@@H]2[C@@H](CCNC(=O)N3CC(c4cccnc4)C3)[C@@H]2C1 [Example 17, (1R,5S,6s)-tert-butyl 6-(2-(3-(pyridin-3-yl)azetidine-1-carboxamido)ethyl)-3-azabicyclo[3.1.0]hexane-3-carboxylate]
2 | – | 0.01 to 0.49 | O=C(NCC[C@@H]1[C@H]2CN(c3nc(Cl)ncc3F)C[C@@H]12)N1Cc2cccnc2C1 [Example 227, N-(2-((1R,5S,6s)-3-(2-chloro-5-fluoropyrimidin-4-yl)-3-azabicyclo[3.1.0]hexan-6-yl)ethyl)-5H-pyrrolo[3,4-b]pyridine-6(7H)-carboxamide]
3 | – | 0.01 to 0.49 | O=C(O)COc1ncc(F)c(N2C[C@@H]3[C@@H](CCNC(=O)/C=C/c4cccnc4)[C@@H]3C2)n1 [Example 282, 2-((5-fluoro-4-((1R,5S,6s)-6-(2-((E)-3-(pyridin-3-yl)acrylamido)ethyl)-3-azabicyclo[3.1.0]hexan-3-yl)pyrimidin-2-yl)oxy)acetic acid]
4 | – | 0.01 to 0.49 | O=C(/C=C/c1cccnc1)NCC[C@@H]1[C@H]2CN(Cc3ccc(F)cc3F)C[C@@H]12 [Example 248, (E)-N-(2-((1R,5S,6s)-3-(2,4-difluorobenzyl)-3-azabicyclo[3.1.0]hexan-6-yl)ethyl)-3-(pyridin-3-yl)acrylamide]
5 | – | < 0.01 | NC(=O)C(c1ccccc1)N1C[C@@H]2[C@@H](CCNC(=O)/C=C/c3cccnc3)[C@@H]2C1 (stereo partly drawn) [Example 283, (E)-N-(2-((1R,5S,6s)-3-(2-amino-2-oxo-1-phenylethyl)-3-azabicyclo[3.1.0]hexan-6-yl)ethyl)-3-(pyridin-3-yl)acrylamide]
6 | 0.01 to 0.49 | – | CC1(OC(=O)N2C[C@@H]3[C@@H](CCNC(=O)N4Cc5ccccc5C4)[C@@H]3C2)COC1 [Example 230, (1R,5S,6s)-3-methyloxetan-3-yl 6-(2-(isoindoline-2-carboxamido)ethyl)-3-azabicyclo[3.1.0]hexane-3-carboxylate]
7 | 0.01 to 0.49 | – | Cc1nc(C)c(C(=O)N2C[C@@H]3[C@@H](CCNC(=O)c4ccc5nccn5c4)[C@@H]3C2)o1 [Example 103, N-(2-((1R,5S,6s)-3-(2,4-dimethyloxazole-5-carbonyl)-3-azabicyclo[3.1.0]hexan-6-yl)ethyl)imidazo[1,2-a]pyridine-6-carboxamide]
8 | – | 0.01 to 0.49 | CC(C)(C)OC(=O)N1C[C@@H]2[C@H](C1)[C@@]2(F)CCNC(=O)/C=C/c1cccnc1 [Example 291, (1R,5S,6r)-tert-butyl 6-fluoro-6-(2-((E)-3-(pyridin-3-yl)acrylamido)ethyl)-3-azabicyclo[3.1.0]hexane-3-carboxylate]
9 | 0.01 to 0.49 | – | CC1(OC(=O)N2C[C@@H]3[C@@H](CCNC(=O)c4cc5cnccc5s4)[C@@H]3C2)COC1 [Example 37, (1R,5S,6s)-3-methyloxetan-3-yl 6-(2-(thieno[3,2-c]pyridine-2-carboxamido)ethyl)-3-azabicyclo[3.1.0]hexane-3-carboxylate]
10 | – | 0.01 to 0.49 | O=C(/C=C/c1cccnc1)NCC[C@@H]1[C@H]2CN(c3ncc(F)cn3)C[C@@H]12 [Example 163, (E)-N-(2-((1R,5S,6s)-3-(5-fluoropyrimidin-2-yl)-3-azabicyclo[3.1.0]hexan-6-yl)ethyl)-3-(pyridin-3-yl)acrylamide]
11 | 0.01 to 0.49 | – | CC1(OC(=O)N2C[C@@H]3[C@@H](CCN/C(=N\C#N)Nc4ccncc4)[C@@H]3C2)COC1 [Example 229, (1R,5S,6s)-3-methyloxetan-3-yl 6-(2-((E)-2-cyano-3-(pyridin-4-yl)guanidino)ethyl)-3-azabicyclo[3.1.0]hexane-3-carboxylate]
12 | – | 0.01 to 0.49 | O=C(/C=C/c1cccnc1)NCC[C@@H]1[C@H]2CN(c3ccc(F)cc3)C[C@@H]12 [Example 195, (E)-N-(2-((1R,5S,6s)-3-(4-fluorophenyl)-3-azabicyclo[3.1.0]hexan-6-yl)ethyl)-3-(pyridin-3-yl)acrylamide]
13 | – | 0.01 to 0.49 | O=C(NCC[C@@H]1[C@H]2CN(c3nc(Cl)ncc3F)C[C@@H]12)N1Cc2ccncc2C1 [Example 226, N-(2-((1R,5S,6s)-3-(2-chloro-5-fluoropyrimidin-4-yl)-3-azabicyclo[3.1.0]hexan-6-yl)ethyl)-1H-pyrrolo[3,4-c]pyridine-2(3H)-carboxamide]
14 | – | 0.01 to 0.49 | Nc1ccc(/C=C/C(=O)NCC[C@@H]2[C@H]3CN(c4ncc5ccccc5n4)C[C@@H]23)cn1 [Example 165, (E)-3-(6-aminopyridin-3-yl)-N-(2-((1R,5S,6s)-3-(quinazolin-2-yl)-3-azabicyclo[3.1.0]hexan-6-yl)ethyl)acrylamide]
15 | 0.01 to 0.49 | – | O=C(NCC[C@@H]1[C@H]2CN(c3nc4ccccc4s3)C[C@@H]12)c1cc2ccncc2o1 [Example 120, N-(2-((1R,5S,6s)-3-(benzo[d]thiazol-2-yl)-3-azabicyclo[3.1.0]hexan-6-yl)ethyl)furo[2,3-c]pyridine-2-carboxamide]
16 | 1 to 29 | – | O=C(NCC[C@@H]1[C@H]2CN(S(=O)(=O)C3CCOCC3)C[C@@H]12)c1ccc2nccn2c1 [Example 68, N-(2-((1R,5S,6s)-3-((tetrahydro-2H-pyran-4-yl)sulfonyl)-3-azabicyclo[3.1.0]hexan-6-yl)ethyl)imidazo[1,2-a]pyridine-6-carboxamide]
17 | 0.01 to 0.49 | – | O=C(NCC[C@@H]1[C@H]2CN(C(=O)c3ccc(F)cc3)C[C@@H]12)c1ccc2nccn2c1 [Example 102, N-(2-((1R,5S,6s)-3-(4-fluorobenzoyl)-3-azabicyclo[3.1.0]hexan-6-yl)ethyl)imidazo[1,2-a]pyridine-6-carboxamide]

Row | Structure (SMILES) | IC50 [1] [µM] | IC50 [2] [µM]
18 | CCOP(=O)(OCC)c1cccc(N2C[C@@H]3[C@@H](CCNC(=O)/C=C/c4cccnc4)[C@@H]3C2)c1 [Example 338, diethyl (3-((1R,5S,6s)-6-(2-((E)-3-(pyridin-3-yl)acrylamido)ethyl)-3-azabicyclo[3.1.0]hexan-3-yl)phenyl)phosphonate] | – | 0.01 to 0.49
